Data reported in patent publication US20050250713A1, “11,12-Cyclic thiocarbamate macrolide antibacterial agents” (priority 2004, published 2005).
≈ marks a conversion by molar mass, not a printed value.

How the values were obtained:
Assay in all cases: MIC, microdilution broth method (NCCLS)
Format in all cases: cell-based
[1] = system: E. faecalis ATCC29212; settings: Enterococcus faecalis, cation adjusted Mueller-Hinton broth, 16-20 hours, read-out: MIC Values, B: E. faecalis ATCC29212
Procedure: (§1) Minimum inhibitory concentration (MIC) has been an indicator of in vitro antibacterial activity widely used in the art. The in vitro antimicrobial activity of the compounds was determined by the microdilution broth method following the test method from the National Committee for Clinical Laboratory Standards (NCCLS). This method is described in the NCCLS Document M7-A4, Vol. 17, No.2, “Methods for Dilution Antimicrobial Susceptibility Test for Bacteria that Grow Aerobically—Fourth Edition”, which is incorporated herein by reference. In this method two-fold serial dilutions of drug in cation adjusted Mueller-Hinton broth are added to wells in microdilution trays. The test organisms are prepared by adjusting the turbidity of actively growing broth cultures so that the final concentration of test organism after it is added to the wells is approximately 5×10^4 CFU/well. Following inoculation of the microdilution trays, the trays are incubated at 35 °C for 16-20 hours and then read. […] The amount of growth in the wells containing the test compound is compared with the amount of growth in the growth-control wells (no test compound) used in each tray. As set forth in Table 1, compounds of the present invention were tested against a variety of Gram positive and Gram negative pathogenic bacteria resulting in a range of activities depending on the organism tested.

[2] = system: S. pneumoniae ATCC49619; settings: Streptococcus pneumoniae, cation adjusted Mueller-Hinton broth, 16-20 hours, read-out: MIC Values, C: S. pneumoniae ATCC49619
Procedure: as §1

[3] = system: S. aureus ATCC29213; settings: Staphylococcus aureus, cation adjusted Mueller-Hinton broth, 16-20 hours
Procedure: as §1

[4] = system: H. influenzae ATCC49247; settings: Haemophilus influenzae, cation adjusted Mueller-Hinton broth, 16-20 hours, read-out: MIC Values, D: H. influenzae ATCC49247
Procedure: as §1

Compound	MIC [1] [µg/mL]	MIC [2] [µg/mL]	MIC [3] [µg/mL]	MIC [4] [µg/mL]
CC[C@H]1OC(=O)[C@H](C)C(=O)[C@H](C)[C@@H](O[C@@H]2O[C@H](C)C[C@H](N(C)C)[C@H]2O)[C@](C)(OC(=O)NC/C=C/c2cnc3ccccc3c2)C[C@@H](C)C(=O)[C@H](C)[C@H]2NC(=S)O[C@@]21C [Compound 5]	0.06 (≈ 0.0727 µM)	≤ 0.015	0.25 (≈ 0.303 µM)	1 (≈ 1.21 µM)
CC[C@H]1OC(=O)[C@H](C)C(=O)[C@H](C)[C@@H](O[C@@H]2O[C@H](C)C[C@H](N(C)C)[C@H]2O)[C@](C)(OC(=O)OC/C=C/c2cnc3ccccc3c2)C[C@@H](C)C(=O)[C@H](C)[C@H]2NC(=S)O[C@@]21C [Compound 9]	0.06 (≈ 0.0726 µM)	–	0.12 (≈ 0.145 µM)	2 (≈ 2.42 µM)
CC[C@H]1OC(=O)[C@H](C)C(=O)[C@H](C)[C@@H](O[C@@H]2O[C@H](C)C[C@H](N(C)C)[C@H]2O)[C@](C)(OC(=O)OC/C=C/c2ccc(Br)nc2)C[C@@H](C)C(=O)[C@H](C)[C@H]2NC(=S)O[C@@]21C [Compound 10]	0.12 (≈ 0.14 µM)	≤ 0.015	0.25 (≈ 0.292 µM)	2 (≈ 2.34 µM)
CC[C@H]1OC(=O)[C@H](C)C(=O)[C@H](C)[C@@H](O[C@@H]2O[C@H](C)C[C@H](N(C)C)[C@H]2O)[C@](C)(OC(=O)NC/C=C/c2cnc(C3CC3)nc2)C[C@@H](C)C(=O)[C@H](C)[C@H]2NC(=S)O[C@@]21C [Compound 7]	0.06 (≈ 0.0735 µM)	≤ 0.015	0.5 (≈ 0.613 µM)	1 (≈ 1.23 µM)
CC[C@H]1OC(=O)[C@H](C)C(=O)[C@H](C)[C@@H](O[C@@H]2O[C@H](C)C[C@H](N(C)C)[C@H]2O)[C@](C)(OC(=O)NC/C(F)=C/c2cnc3ccccc3c2)C[C@@H](C)C(=O)[C@H](C)[C@H]2NC(=S)O[C@@]21C [Compound 12]	0.12 (≈ 0.142 µM)	0.03 (≈ 0.0356 µM)	0.5 (≈ 0.593 µM)	1 (≈ 1.19 µM)
CC[C@H]1OC(=O)[C@H](C)C(=O)[C@H](C)[C@@H](O[C@@H]2O[C@H](C)C[C@H](N(C)C)[C@H]2O)[C@](C)(OC(=O)NC/C=C/c2ccc(Br)nc2)C[C@@H](C)C(=O)[C@H](C)[C@H]2NC(=S)O[C@@]21C [Compound 6]	0.06 (≈ 0.0703 µM)	≤ 0.015	0.5 (≈ 0.586 µM)	1 (≈ 1.17 µM)
CC[C@H]1OC(=O)[C@H](C)C(=O)[C@H](C)[C@@H](O[C@@H]2O[C@H](C)C[C@H](N(C)C)[C@H]2O)[C@](C)(OC(=O)NC/C=C/c2ccc(-c3cccnn3)cc2)C[C@@H](C)C(=O)[C@H](C)[C@H]2NC(=S)O[C@@]21C [Compound 4]	0.25 (≈ 0.293 µM)	0.12 (≈ 0.141 µM)	0.5 (≈ 0.587 µM)	2 (≈ 2.35 µM)
